Results on 15 compounds are retold here after US4465851A, “Guanidinocyclohexanecarboxylic acid derivatives” (Nippon Chemiphar Co., Ltd., priority 1981, dated 1984).

Assay [1] concerns Mast cells. The assay can be described thus: Effects on histamine release from mast cells induced by compound 48/80. The class given is cell-based. Particulars: Mast cell; 10 μg/ml test compound; compound 48/80 induced; read-out: Inhibition of histamine release.
Description: After incubation for 20 minutes at 37° C., the suspension was cooled to 4° C., and released histamine was determined as described by Shore et al. All samples examined were recognized to cause no disturbance in the fluorometric assay.
The next assay deals with Pancreas kallikrein (Sus scrofa, UniProt P00752). The assay can be described thus: Inhibition of pancreas kallikrein (BAEe hydrolysis). Particulars: BAEe substrate, 37° C., 30 minutes, pH 8.0; read-out: Concentration for 50% inhibition (IC50), pancreas kallikrein. The class given is biochemical. The protocol:
(§1) Inhibitory effects on the TAMe(N^α -tosyl-L-arginine methyl ester) hydrolytic activity of trypsin, plasmin, plasma kallikrein and thrombin were estimated by Hesterin's method modified by Roberts. Inhibition of the BAEe(N^α -benzoyl-L-arginine ethyl ester) hydrolytic activity of pancreas kallikrein was determined by Hesterin's method after incubation at 37° C. for 30 minutes in a 0.1M borate buffer, pH 8.0. Inhibitory effects on urokinase were determined by the chromotropic acid method after incubation of 60 iu of urokinase with 10 mM AGLMe(acetylglycyl-L-lysine methyl ester) at 37° C. for 30 minutes in a 0.06M phosphate buffer, pH 7.5, containing 0.09M NaCl. Inhibition of chymotrypsin was determined by Hesterin's method after incubation with 15 mM ATE (N^α -acetyl-L-tyrosine ethyl ester) for 30 minutes at 37° C. in a 0.1M borate buffer, pH 8.0.

The target of the next assay is Plasmin (Homo sapiens, UniProt P00747). The assay can be described thus: Inhibition of plasmin (TAMe hydrolysis). The class given is biochemical. The conditions noted are these: TAMe substrate; read-out: Concentration for 50% inhibition (IC50), plasmin. On the procedure:
as §1

For the next assay, the target named is Urokinase (Homo sapiens, UniProt P00749). The assay can be described thus: Inhibition of urokinase (AGLMe, chromotropic acid method). The class given is biochemical. The conditions noted are these: 60 iu urokinase, 10 mM AGLMe, 37° C., 30 minutes, pH 7.5; read-out: Concentration for 50% inhibition (IC50), urokinase. On the procedure:
as §1

Assay [2] has as its system guinea pigs ilea. Description: Anti-acetylcholine action. Also noted: species or system guinea pig. The conditions noted are these: Cavia porcellus, read-out: Anti-acetylcholine effect inhibition of contraction; for inhibition at 25 µg/mL: final conc. 25 μg/ml; for inhibition at 50 µg/mL: final conc. 50 μg/ml. From the text:
(§2) Anti-acetylcholine and anti-histamine effects of the present compounds were examined using guinea pigs ilea by the usual method.

The next assay deals with Chymotrypsin (Bos taurus, UniProt P00766). Description: Inhibition of chymotrypsin (ATE hydrolysis). The assay is classed as biochemical. Particulars: 15 mM ATE, 30 minutes, 37° C., pH 8.0; read-out: Concentration for 50% inhibition (IC50), chymotrypsin. On the procedure: as §1
The target of a further assay is Thrombin (Homo sapiens, UniProt P00734). The assay can be described thus: Inhibition of thrombin (TAMe hydrolysis). The class given is biochemical. The conditions noted are these: TAMe substrate; read-out: Concentration for 50% inhibition (IC50), thrombin.
The target of another assay is T1, Trypsin (Bos taurus, UniProt P00760).
T1 sequence (P00760 24-246): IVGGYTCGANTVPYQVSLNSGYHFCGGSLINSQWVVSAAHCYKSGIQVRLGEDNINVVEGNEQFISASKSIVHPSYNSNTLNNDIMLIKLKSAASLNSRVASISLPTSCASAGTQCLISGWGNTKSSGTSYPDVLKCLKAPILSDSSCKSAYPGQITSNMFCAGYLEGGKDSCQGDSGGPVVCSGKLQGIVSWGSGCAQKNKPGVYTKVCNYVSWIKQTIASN
Description: Inhibition of trypsin (TAMe hydrolysis). The class given is biochemical. The conditions noted are these: TAMe substrate; read-out: Concentration for 50% inhibition (IC50), trypsin. The protocol:
as §1

Assay [3] relates to guinea pigs ilea. Description: Anti-histamine action. Also noted: species or system guinea pig. The conditions noted are these: Cavia porcellus, read-out: Anti-histamine effect inhibition of contraction; for inhibition at 25 µg/mL: final conc. 25 μg/ml; for inhibition at 50 µg/mL: final conc. 50 μg/ml.
Excerpt: as §2

In assay [4] the test system is ileum of each sensitized guinea pig. The assay can be described thus: Schultz-Dale reaction. The conditions noted are these: Cavia porcellus, read-out: Inhibition of contraction (Schultz-Dale reaction); for inhibition at 25 µg/mL: final conc. 25 μg/ml; for inhibition at 50 µg/mL: final conc. 50 μg/ml. On the procedure:
Male guinea pigs were sensitized with bovine serum albumin by Freund's complete adjuvant method. After a lapse of 10 days, the animals were sensitized once more as described above. After two more weeks, an ileum of each sensitized guinea pig was removed and used for experiment. The ileum was equipped in a magnus tube containing each test sample, and 500 μg of bovine serum albumin was added. The contraction of the ileum was determined.

A further assay concerns the target Plasma kallikrein (Homo sapiens, UniProt P03952). Description: Inhibition of plasma kallikrein (TAMe hydrolysis). The class given is biochemical. The conditions noted are these: TAMe substrate; read-out: Concentration for 50% inhibition (IC50), plasma kallikrein. On the procedure: as §1
The test system of assay [5] is Mast cells. The conditions noted are these: Life Sciences 10, 805-812 (1971); Internal Medicine 42(6), 933 (1978); cited from earlier work.

pIC50: −log10 of the molar value. Counter-ions that a name gives are not always drawn.

Chain of Pancreas kallikrein (P00752 15-246 limits assumed): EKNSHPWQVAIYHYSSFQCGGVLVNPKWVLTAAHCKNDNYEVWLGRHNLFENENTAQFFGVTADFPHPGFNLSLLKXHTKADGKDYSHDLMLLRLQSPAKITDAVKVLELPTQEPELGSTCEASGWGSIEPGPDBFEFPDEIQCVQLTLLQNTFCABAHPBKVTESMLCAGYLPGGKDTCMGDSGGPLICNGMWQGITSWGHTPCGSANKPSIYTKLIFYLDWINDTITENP
Chain of Plasmin (P00747 97-580 limits assumed, species assumed): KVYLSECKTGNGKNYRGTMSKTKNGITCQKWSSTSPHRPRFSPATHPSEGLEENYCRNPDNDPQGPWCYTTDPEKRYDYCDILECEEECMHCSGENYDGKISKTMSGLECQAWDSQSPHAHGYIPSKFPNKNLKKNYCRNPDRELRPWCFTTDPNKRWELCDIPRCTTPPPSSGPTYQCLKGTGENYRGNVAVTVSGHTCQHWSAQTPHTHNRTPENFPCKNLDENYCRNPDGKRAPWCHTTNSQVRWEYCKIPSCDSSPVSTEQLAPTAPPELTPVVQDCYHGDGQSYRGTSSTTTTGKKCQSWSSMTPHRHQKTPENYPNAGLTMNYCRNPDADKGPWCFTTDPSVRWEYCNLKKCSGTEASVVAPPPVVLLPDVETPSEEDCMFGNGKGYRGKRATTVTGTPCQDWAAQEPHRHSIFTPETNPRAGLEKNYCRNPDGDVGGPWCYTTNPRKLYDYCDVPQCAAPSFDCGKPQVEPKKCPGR
Chain of Plasma kallikrein (P03952 20-390 limits assumed, species assumed): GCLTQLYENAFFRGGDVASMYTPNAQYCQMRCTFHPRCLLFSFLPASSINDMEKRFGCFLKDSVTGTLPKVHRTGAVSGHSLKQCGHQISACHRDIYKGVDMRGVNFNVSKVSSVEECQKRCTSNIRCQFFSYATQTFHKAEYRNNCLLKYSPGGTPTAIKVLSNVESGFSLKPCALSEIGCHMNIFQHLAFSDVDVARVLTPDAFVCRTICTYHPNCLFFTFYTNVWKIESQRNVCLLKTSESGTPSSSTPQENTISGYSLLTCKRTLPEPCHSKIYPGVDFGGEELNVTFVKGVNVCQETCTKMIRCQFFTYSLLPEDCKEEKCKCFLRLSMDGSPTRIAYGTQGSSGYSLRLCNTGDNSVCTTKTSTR

The term inhibition denotes the relative decrease from the control value, in per cent. Regarding `N=C(N)NC[C@H]1CC[C@H](C(=O)Oc2ccc3c(c2)CCC3)CC1` [Compound 23, 5'-Indanyl trans-4-guanidinomethylcyclohexanecarboxylate hydrochloride], the inhibition at 10 µg/mL in the assay on Mast cells [1] amounted to 12.7%.

With `N#Cc1ccccc1OC(=O)[C@H]1CC[C@H](CNC(=N)N)CC1` [Compound 21, 2'-Cyanophenyl trans-4-guanidinomethylcyclohexanecarboxylate hydrochloride], the figures for the pIC50 on Pancreas kallikrein, at Plasmin and at Urokinase were 4.52, 3.70 and 3.96, respectively.

In the case of `N=C(N)NC[C@H]1CC[C@H](C(=O)Oc2ccc(I)cc2)CC1` [Compound 7, 4'-Iodophenyl trans-4-guanidinomethylcyclohexanecarboxylate hydrochloride], in the assay with Mast cells [1], the inhibition at 10 µg/mL was 18.4%.

`N=C(N)NC[C@H]1CC[C@H](C(=O)Oc2ccc3ccccc3c2[N+](=O)[O-])CC1` [Compound 29, 2'-(1'-Nitro)naphthyl trans-4-guanidinomethylcyclohexanecarboxylate hydrochloride]: the inhibition at 10 µg/mL in the assay on Mast cells [1] was 20.6%. Besides, in the assay on guinea pigs ilea [2], the inhibition at 25 µg/mL is 52% and the inhibition at 50 µg/mL was found to be 80%.

Take `Cc1cc(OC(=O)[C@H]2CC[C@H](CNC(=N)N)CC2)c(C(C)C)cc1Cl` [Compound 14, 2'-iso-Propyl-4'-chloro-5'-methylphenyl trans-4-guanidinomethylcyclohexanecarboxylate hydrochloride]: the pIC50 on Chymotrypsin is 4.00; at Pancreas kallikrein, 3.89; at Plasmin it was 3.40; on Thrombin it was 3.62; at Trypsin, 3.72. For the same compound, in the assay on Mast cells [1], the inhibition at 10 µg/mL is 38.8%.

Take `N=C(N)NC[C@H]1CC[C@H](C(=O)Oc2ccc(Cl)c3ccccc23)CC1` [Compound 28, 4'-Chloronaphthyl trans-4-guanidinomethylcyclohexanecarboxylate hydrochloride]: the inhibition at 10 µg/mL with Mast cells [1] came out at 60.9%. Also, the inhibition at 25 µg/mL came out at 99.7% in the assay on guinea pigs ilea [3], 80% in assay [4] and 68% with guinea pigs ilea [2]. Besides, the inhibition at 50 µg/mL in the assay on guinea pigs ilea [3] amounted to 100%; in [4], 100%; with guinea pigs ilea [2], 76%.

Turning to `N=C(N)NC[C@H]1CC[C@H](C(=O)Oc2ccc3ccc(=O)oc3c2)CC1` [Compound 24, 7'-(2'-Oxochromenyl)trans-4-guanidinomethylcyclohexanecarboxylate hydrochloride], the pIC50 is 5.22 at Chymotrypsin, 4.70 on Pancreas kallikrein, 3.64 at Thrombin and 4.30 on Urokinase.

On to `N=C(N)NC[C@H]1CC[C@H](C(=O)Oc2ccc(Cl)cc2)CC1` [Compound 10, 4'-Chlorophenyl trans-4-guanidinomethylcyclohexanecarboxylate hydrochloride], for which the inhibition at 25 µg/mL in the assay with guinea pigs ilea [3] turned out to be 100%; in assay [4], 100%; in the assay on guinea pigs ilea [2], 89.8%. The inhibition at 50 µg/mL (in the assay with guinea pigs ilea [3]; in [4]; in the assay with guinea pigs ilea [2]) was 100% each time.

In the case of `N=C(N)NC[C@H]1CC[C@H](C(=O)Oc2ccccc2Cl)CC1` [Compound 5, 2'-Chlorophenyl trans-4-guanidinomethylcyclohexanecarboxylate hydrochloride], the pIC50 was 4.92 at Chymotrypsin; 4.05 at Pancreas kallikrein; 3.80 on Thrombin; 3.52 at Plasma kallikrein; 3.80 on Urokinase; 3.41 at Trypsin.

Turning to `N=C(N)NC[C@H]1CC[C@H](C(=O)Oc2ccccc2)CC1` [Compound A, Phenyl trans4-guanidinomethylcyclohexanecarboxylate hydrochloride, reference compound], the inhibition at 10 µg/mL in the assay with Mast cells [1] is 5%. Also, in the assay with guinea pigs ilea [3], the inhibition at 25 µg/mL was found to be 100% and the inhibition at 50 µg/mL amounted to 100%. Besides, in assay [4], the inhibition at 25 µg/mL was found to be 0% and the inhibition at 50 µg/mL worked out at 0%.

With `N=C(N)NC[C@H]1CC[C@H](C(=O)Oc2ccc([N+](=O)[O-])cc2)CC1` [Compound 15, 4'-Nitrophenyl trans-4-guanidinomethylcyclohexanecarboxylate hydrochloride], the pIC50 at Chymotrypsin was 5.55; at Pancreas kallikrein, 4.60; at Thrombin, 4.02; on Plasma kallikrein, 3.52; on Urokinase, 4.51; on Trypsin it was 4.05.

As for `Cc1ccc(OC(=O)[C@H]2CC[C@H](CNC(=N)N)CC2)cc1` [Compound 3, 4'-Methylphenyl trans-4-guanidinomethylcyclohexanecarboxylate hydrochloride], the pIC50 was 4.15 at Chymotrypsin, 3.49 at Pancreas kallikrein and 3.59 on Urokinase. Moreover, the inhibition at 25 µg/mL in the assay with guinea pigs ilea [3] amounted to 98%; in assay [4], 83.3%; in the assay with guinea pigs ilea [2], 100%. Moreover, the inhibition at 50 µg/mL (in the assay on guinea pigs ilea [3]; in [4]; in the assay with guinea pigs ilea [2]) was 100% each time.

For `Cc1ccc(C(C)C)c(OC(=O)[C@H]2CC[C@H](CNC(=N)N)CC2)c1` [Compound 13, 2'-iso-Propyl-5'-methylphenyl trans-4-guanidinomethylcyclohexanecarboxylatehydrochloride], the pIC50 on Pancreas kallikrein is 3.40; on Plasmin, 3.40; on Urokinase it was 4.52.

For the compound `N=C(N)NC[C@H]1CC[C@H](C(=O)Oc2ccc(Br)cc2)CC1` [Compound 6, 4'-Bromophenyl trans-4-guanidinomethylcyclohexanecarboxylate hydrochloride], the pIC50 at Pancreas kallikrein was 3.82; on Thrombin, 3.74; on Trypsin, 3.59.

On to `O=C(O)c1cc(=O)c2c(OCC(O)COc3cccc4oc(C(=O)O)cc(=O)c34)cccc2o1` [DSCG, Disodium cromoglycate, reference compound], for which, in the assay with Mast cells [1], the inhibition at 10 µg/mL came to 10%. Further, in the assay on guinea pigs ilea [3], the inhibition at 25 µg/mL was found to be 0% and the inhibition at 50 µg/mL is 0%. In the assay with Mast cells [5], the “inhibitory effects on histamine release from mast cells” value is on record as “has inhibitory effects on histamine release from mast cells”.
